# Key:
# DBH = target: T1, DBH (Homo sapiens, UniProt P09172); settings: reported by Runti et al., Il Farmaco Ed. Sci. 36, 260 (1980); cited from earlier work
# T1 sequence (P09172 1-617): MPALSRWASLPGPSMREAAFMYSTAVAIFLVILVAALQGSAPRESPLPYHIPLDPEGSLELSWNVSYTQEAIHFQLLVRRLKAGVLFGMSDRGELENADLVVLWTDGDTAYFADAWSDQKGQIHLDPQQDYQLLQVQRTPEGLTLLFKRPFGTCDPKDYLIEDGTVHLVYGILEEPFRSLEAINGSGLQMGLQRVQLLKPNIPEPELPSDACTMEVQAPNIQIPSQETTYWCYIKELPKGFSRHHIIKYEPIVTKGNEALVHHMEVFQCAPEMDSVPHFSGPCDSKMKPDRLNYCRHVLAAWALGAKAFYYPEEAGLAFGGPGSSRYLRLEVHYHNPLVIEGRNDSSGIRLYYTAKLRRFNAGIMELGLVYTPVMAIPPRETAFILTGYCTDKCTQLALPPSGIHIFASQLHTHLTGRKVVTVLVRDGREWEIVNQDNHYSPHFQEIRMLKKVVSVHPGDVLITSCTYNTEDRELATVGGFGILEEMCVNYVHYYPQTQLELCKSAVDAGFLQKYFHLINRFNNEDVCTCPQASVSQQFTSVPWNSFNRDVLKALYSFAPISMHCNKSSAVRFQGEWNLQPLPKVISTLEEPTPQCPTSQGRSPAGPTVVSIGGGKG
# [1] = tested on: spontaneously hypertensive rats; assay: mean arterial blood pressure in spontaneously hypertensive rats; type: in vivo
# Method: Further, spontaneously hypertensive rats were treated with a suspension or solution of 1-benzyl-1,2,4-triazole-5-thiol at a dose of 100 mg/kg orally, and mean arterial blood pressure was monitored for 260 minutes using indwelling cannulae positioned in the tail arteries. When compared to vehicle-treated controls, the compound-treated animals' blood pressure was approximately 5% below that of controls 20 minutes following treatment. The compound-treated animals' blood pressure continued to fall until it reached its nadir of approximately 20% less than controls at 240 minutes after compound treatment. Similarly, 1-(3ʹ-fluorobenzyl)-1,2,4-triazole-5-thiol produced approximate 20% blood pressure reductions one hour after a 50 mg/kg intraperitoneal dose. The blood pressure of the treated animals remained approximately 20% less than controls when blood pressure monitoring was terminated.
compound,measurement,setting,value
phenylpicolinic acid,inhibitory activity relative to fusaric acid,DBH,twice the inhibitory activity of fusaric acid
"Fc1cccc(Cn2ncnc2S)c1 [1-(3ʹ-Fluorobenzyl)-1,2,4-triazole-5-thiol]",blood pressure reductions,"[1]; 50 mg/kg intraperitoneal dose, one hour after dose",approximately 20%
same,blood pressure less than controls,"[1]; 50 mg/kg intraperitoneal dose, when blood pressure monitoring was terminated",approximately 20%
"Sc1ncnn1Cc1ccccc1 [1-benzyl-1,2,4-triazole-5-thiol, 1-Benzyl-1,2,4-triazole-5-thiol]",blood pressure below that of controls,"[1]; 100 mg/kg orally, 20 minutes following treatment, vs vehicle-treated controls",approximately 5%
same,"blood pressure nadir, less than controls","[1]; 100 mg/kg orally, 240 minutes after compound treatment, vs vehicle-treated controls",approximately 20%

# Reference: patent publication EP0246888A2, “Dopamine-beta-hydroxylase inhibitors” (SMITHKLINE BECKMAN CORPORATION, priority 1986, dated 1987)
